The IC50 is the concentration needed to halve the response being measured.

Assay [1] addresses T1, aggrecanase-1 (Homo sapiens, UniProt O75173).
T1 sequence (O75173 213-837): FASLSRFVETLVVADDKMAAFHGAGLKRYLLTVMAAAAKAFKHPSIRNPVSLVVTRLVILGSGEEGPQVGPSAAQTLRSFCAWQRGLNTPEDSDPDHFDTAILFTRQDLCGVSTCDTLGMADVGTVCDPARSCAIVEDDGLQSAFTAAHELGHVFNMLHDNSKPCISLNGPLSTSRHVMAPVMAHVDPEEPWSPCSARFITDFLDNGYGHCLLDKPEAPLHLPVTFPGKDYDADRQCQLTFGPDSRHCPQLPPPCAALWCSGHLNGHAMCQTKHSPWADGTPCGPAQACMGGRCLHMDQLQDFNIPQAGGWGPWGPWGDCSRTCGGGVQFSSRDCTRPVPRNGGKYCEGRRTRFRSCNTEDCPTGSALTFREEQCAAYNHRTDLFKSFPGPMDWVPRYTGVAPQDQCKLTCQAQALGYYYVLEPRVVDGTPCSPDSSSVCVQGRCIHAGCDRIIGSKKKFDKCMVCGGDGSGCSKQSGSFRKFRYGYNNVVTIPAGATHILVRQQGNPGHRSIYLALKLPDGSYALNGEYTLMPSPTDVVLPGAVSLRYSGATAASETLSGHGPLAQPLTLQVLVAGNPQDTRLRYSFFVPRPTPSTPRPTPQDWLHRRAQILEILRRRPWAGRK
The assay is described as follows: Aggrecanase-1 inhibitory action, Particle Assay (GAG release from aggrecan-containing polyacrylamide particles). Type of assay: biochemical. Particulars: 37° C. for 15 hr, read-out: Experimental Example 1 IC50 AG1. The protocol:
Aggrecanase-1 Inhibitory Action
Particle Assay was used for determination of aggrecanase activity.
(§1) The enzyme and substrate were diluted with Tris-HCl buffer, and test compounds were diluted with dimethyl sulfoxide (DMSO).
Test compounds and the enzyme were added into 96-well plate, and polyacrylamide particles containing aggrecan were added as a substrate and the mixture was incubated at 37° C. for 15 hr.
After incubation; the supernatant was transferred to another plate, and mixed with 1,9-dimethylmethylene blue. The absorbance at 595 nm was measured to quantify the amount of glycosaminoglycan (GAG) released in the reaction supernatant. Whale chondroitin sulfate was used as the standard of GAG. The inhibitory activity of the compound in each well (%) was calculated based on the values of enzyme-free well and inhibitor-free well. The inhibitory activity of the compound was represented as IC50 (μM).

Assay [2] deals with T2, MMP-1 (Homo sapiens, UniProt P03956).
T2 sequence (P03956 100-469): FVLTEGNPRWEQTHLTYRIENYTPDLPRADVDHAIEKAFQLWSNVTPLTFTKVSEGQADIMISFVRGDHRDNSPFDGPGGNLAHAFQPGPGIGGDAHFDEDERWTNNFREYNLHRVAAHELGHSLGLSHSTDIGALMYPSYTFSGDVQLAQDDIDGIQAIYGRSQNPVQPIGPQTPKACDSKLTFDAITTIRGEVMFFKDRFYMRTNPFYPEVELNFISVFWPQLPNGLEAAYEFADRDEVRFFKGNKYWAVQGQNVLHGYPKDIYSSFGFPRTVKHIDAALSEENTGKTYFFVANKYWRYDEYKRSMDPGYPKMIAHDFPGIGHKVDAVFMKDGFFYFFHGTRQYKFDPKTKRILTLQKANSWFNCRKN
The assay is described as follows: MMP-1 inhibitory action, Type I collagen Activity Measurement kit (FITC-labeled collagen type I). It counts as biochemical. The conditions noted are these: 37° C. for 3 hr, read-out: Experimental Example 2 IC50 MMP1. The method, then: For MMP-1 Assay, Type I collagen Activity Measurement kit (YAGAI YU-72013) modified to a 96-well plate format was used.
The principle of the kit is based on the property of collagen that becomes soluble in ethanol after being cleaved by MMP-1.
as §1
The enzyme and test compounds were added into 96-well plate, and fluorescein isothiocianate (FITC)-labeled collagen type I was added as a substrate and the mixture was incubated at 37° C. for 3 hr.
The reaction was terminated by addition of Tris-HCl buffer containing ethanol. After centrifugation, the supernatant containing denatured substrate was transferred to another 96-well plate. The collagenase activity of MMP-1 was determined by measuring FITC fluorescence intensity (excitation wavelength 485 nm, emission wavelength 530 nm) of each well. The inhibitory activity of the compound in each well (%) was calculated based on the values of enzyme-free well and inhibitor-free well. The inhibitory activity of the compound was represented as IC50 (μM).

Regarding `CC(C)(C)OC(=O)NCCN([C@]1(C(=O)O)C[C@H]1c1ccccc1)S(=O)(=O)c1ccc(-c2ccc(Cl)cc2)cc1` (relative stereo) [Example 1-4, (1R*,2S*)-1-[(2-tert-butoxycarbonylamino-ethyl)-(4′-chloro-biphenyl-4-sulfonyl)-amino]-2-phenyl-cyclopropanecarboxylic acid], the figures for the IC50 in assay [1] and in assay [2] were below 1 µM and at least 10 µM, respectively.

As for `O=C(O)[C@@]1(N(Cc2cc(=O)[nH][nH]2)S(=O)(=O)c2ccc(-c3ccc(Cl)cc3)cc2)C[C@H]1c1ccccc1` (relative stereo) [Example 1-5, (1R*,2S*)-1-[(4′-chloro-biphenyl-4-sulfonyl)-(5-oxo-2,5-dihydro-1H-pyrazol-3-ylmethyl)-amino]-2-phenyl-cyclopropanecarboxylic acid], the IC50 is below 1 µM in assay [1] and at least 10 µM in assay [2].

Turning to `CS(=O)(=O)NCCN([C@]1(C(=O)O)C[C@H]1c1ccccc1)S(=O)(=O)c1ccc(-c2ccc(Cl)cc2)cc1` (relative stereo) [Example 1-7, (1R*,2S*)-1-[(4′-chloro-biphenyl-4-sulfonyl)-(2-methanesulfonylamino-ethyl)-amino]-2-phenyl-cyclopropanecarboxylic acid], the results for the IC50 in assay [1] and in assay [2] were below 1 µM and at least 10 µM, respectively.

As for `CC(C)OC(=O)NS(=O)(=O)NCCN([C@]1(C(=O)O)C[C@H]1c1ccccc1)S(=O)(=O)c1ccc(-c2ccc(Cl)cc2)cc1` (relative stereo) [Example 1-9, (1R*, 2S*)-1-[(4′-chloro-biphenyl-4-sulfonyl)-(2-isopropoxycarbonylaminosulfonylamino-ethyl)-amino]-2-phenyl-cyclopropanecarboxylic acid], the IC50 in assay [1] was below 1 µM; in assay [2], at least 10 µM.

`O=C(O)c1ccc(CN([C@]2(C(=O)O)C[C@H]2c2ccccc2)S(=O)(=O)c2ccc(-c3ccc(Cl)cc3)cc2)cc1` (relative stereo) [Example 1-10, (1R*,2S*)-4-{[(1-carboxy-2-phenyl-cyclopropyl)-(4′-chloro-biphenyl-4-sulfonyl)-amino]-methyl}-benzoic acid]: the IC50 in assay [1] was below 0.1 µM; in assay [2], at least 10 µM.

With `O=C(O)CN([C@]1(C(=O)O)C[C@H]1c1ccc(Cl)cc1)S(=O)(=O)c1ccc(-c2ccc(Cl)cc2)cc1` (relative stereo) [Example 1-11, (1R*,2S*)-1-[carboxymethyl-(4′-chloro-biphenyl-4-sulfonyl)-amino]-2-(4-chloro-phenyl)-cyclopropanecarboxylic acid], the IC50 was below 1 µM in assay [1] and at least 10 µM in assay [2].

Take `O=C(O)CN([C@]1(C(=O)O)C[C@H]1c1cccc(Cl)c1)S(=O)(=O)c1ccc(-c2ccc(Cl)cc2)cc1` (relative stereo) [Example 1-12, (1R*,2S*)-1-[carboxymethyl-(4′-chloro-biphenyl-4-sulfonyl)-amino]-2-(3-chloro-phenyl)-cyclopropanecarboxylic acid]: the values for the IC50 in assay [1] and in assay [2] were below 1 µM and at least 10 µM, respectively.

On to `O=C(O)CN([C@]1(C(=O)O)C[C@H]1c1ccccc1Cl)S(=O)(=O)c1ccc(-c2ccc(Cl)cc2)cc1` (relative stereo) [Example 1-13, (1R*,2S*)-1-[carboxymethyl-(4′-chloro-biphenyl-4-sulfonyl)-amino]-2-(2-chloro-phenyl)-cyclopropanecarboxylic acid], for which the IC50 was below 1 µM in assay [1] and at least 10 µM in assay [2].

For the compound `O=C(O)[C@@]1(N(Cc2nn[nH]n2)S(=O)(=O)c2ccc(-c3ccc(Cl)cc3)cc2)C[C@H]1c1ccccc1` (relative stereo) [Example 1-15, (1R*,2S*)-1-[(4′-chloro-biphenyl-4-sulfonyl)-(2H-tetrazol-5-ylmethyl)-amino]-2-phenyl-cyclopropanecarboxylic acid], the figures for the IC50 in assay [1] and in assay [2] were below 1 µM and at least 10 µM, respectively.

Regarding `O=C(O)[C@@]1(N(Cc2cccc(O)c2)S(=O)(=O)c2ccc(-c3ccc(Cl)cc3)cc2)C[C@H]1c1ccccc1` (relative stereo) [Example 1-17, (1R*,2S*)-1-[(4′-chloro-biphenyl-4-sulfonyl)-(3-hydroxy-benzyl)-amino]-2-phenyl-cyclopropanecarboxylic acid], the IC50 in assay [1] was below 1 µM; in assay [2], at least 10 µM.

On to `Cc1ccc([C@@H]2C[C@@]2(C(=O)O)N(CC(=O)O)S(=O)(=O)c2ccc(-c3ccc(Cl)cc3)cc2)cc1` (relative stereo) [Example 1-18, (1R*,2S*)-1-[carboxymethyl-(4′-chloro-biphenyl-4-sulfonyl)-amino]-2-(4-methyl-phenyl)-cyclopropanecarboxylic acid], for which the IC50 in assay [1] was below 1 µM; in assay [2] it was at least 10 µM.

Regarding `Cc1ccccc1[C@@H]1C[C@@]1(C(=O)O)N(CC(=O)O)S(=O)(=O)c1ccc(-c2ccc(Cl)cc2)cc1` (relative stereo) [Example 1-19, (1R*,2S*)-1-[carboxymethyl-(4′-chloro-biphenyl-4-sulfonyl)-amino]-2-(2-methyl-phenyl)-cyclopropanecarboxylic acid], the IC50 in assay [1] was below 1 µM; in assay [2], at least 10 µM.

Take `Cc1cccc([C@@H]2C[C@@]2(C(=O)O)N(CC(=O)O)S(=O)(=O)c2ccc(-c3ccc(Cl)cc3)cc2)c1` (relative stereo) [Example 1-20, (1R*,2S*)-1-[carboxymethyl-(4′-chloro-biphenyl-4-sulfonyl)-amino]-2-(3-methyl-phenyl)-cyclopropanecarboxylic acid]: the IC50 in assay [1] is below 1 µM; in assay [2], at least 10 µM.

On to `COc1ccccc1[C@@H]1C[C@@]1(C(=O)O)N(CC(=O)O)S(=O)(=O)c1ccc(-c2ccc(Cl)cc2)cc1` (relative stereo) [Example 1-22, (1R*,2S*)-1-[carboxymethyl-(4′-chloro-biphenyl-4-sulfonyl)-amino]-2-(2-methoxy-phenyl)-cyclopropanecarboxylic acid], for which the IC50 was below 1 µM in assay [1] and at least 10 µM in assay [2].

For the compound `O=C(O)CN([C@]1(C(=O)O)C[C@H]1c1ccc(Cl)c(Cl)c1)S(=O)(=O)c1ccc(-c2ccc(Cl)cc2)cc1` (relative stereo) [Example 1-23, (1R*,2S*)-1-[carboxymethyl-(4′-chloro-biphenyl-4-sulfonyl)-amino]-2-(3,4-dichloro-phenyl)-cyclopropanecarboxylic acid], the IC50 was below 1 µM in assay [1] and at least 10 µM in assay [2].

On to `O=C(O)CN([C@]1(C(=O)O)C[C@H]1c1cc(Cl)ccc1Cl)S(=O)(=O)c1ccc(-c2ccc(Cl)cc2)cc1` (relative stereo) [Example 1-24, (1R*,2S*)-1-[carboxymethyl-(4′-chloro-biphenyl-4-sulfonyl)-amino]-2-(2,5-dichloro-phenyl)-cyclopropanecarboxylic acid], for which the IC50 in assay [1] was below 1 µM; in assay [2], at least 10 µM.

Turning to `O=C(O)CN([C@]1(C(=O)O)C[C@H]1c1cccc(Oc2ccccc2)c1)S(=O)(=O)c1ccc(-c2ccc(Cl)cc2)cc1` (relative stereo) [Example 1-25, (1R*,2S*)-1-[carboxymethyl-(4′-chloro-biphenyl-4-sulfonyl)-amino]-2-(3-phenoxy-phenyl)-cyclopropanecarboxylic acid], the IC50 in assay [1] was below 0.1 µM; in assay [2], at least 10 µM.

For the origin of these results see US20050222146A1, “N-substituted-n-sulfonylaminocyclopropane compounds and pharmaceutical use thereof” (priority 2003, published 2005).
